Results taken from patent US20200016159A1, “N3-CYCLICALLY SUBSTITUTED THIENOURACILS AND USE THEREOF” (Bayer Aktiengesellschaft, priority 2016, published 2020).

target: T1, human adenosine A2b receptor (Homo sapiens, UniProt P29275); test: Cellular in vitro reporter gene test for A2b receptor activity (antagonism of NECA); type: cell-based; set-up: expressed in transfected cells; host or cells: CHO-K1 (Chinese hamster ovary) with CRE-luciferase reporter; conditions: recombinant CHO-K1 cells, CRE-luciferase reporter, co-incubation with EC50 concentration of NECA, 3 hours
T1 sequence (P29275 1-332): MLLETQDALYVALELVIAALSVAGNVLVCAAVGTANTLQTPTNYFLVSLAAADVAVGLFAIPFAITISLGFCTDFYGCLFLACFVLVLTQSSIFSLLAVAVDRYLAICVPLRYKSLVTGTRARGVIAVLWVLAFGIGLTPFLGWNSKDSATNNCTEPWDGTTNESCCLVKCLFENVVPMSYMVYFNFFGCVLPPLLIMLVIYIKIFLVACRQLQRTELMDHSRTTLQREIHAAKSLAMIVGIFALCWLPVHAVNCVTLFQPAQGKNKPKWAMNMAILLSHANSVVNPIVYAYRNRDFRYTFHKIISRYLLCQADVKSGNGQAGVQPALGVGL
How it was run: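 CHO-K1 cells expressing recombinant human A2b receptor plus a CRE-driven firefly luciferase reporter. Compounds co-incubated with NECA at its same-day EC50 concentration; luminescence read 3 hours after NECA addition. IC50 values, sometimes means of several determinations rounded to two significant figures.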

Structure (SMILES)	IC50 [nM]
Cc1c(Cn2nc[nH]c2=O)sc2c1c(=O)n([C@H]1C[C@@H]1C)c(=O)n2CC(F)(F)F [Example 321, 5-Methyl-3-[(1S,2S)-2-methylcyclopropyl]-6-[(5-oxo-4,5-dihydro-1H-1,2,4-triazol-1-yl)methyl]-1-(2,2,2-trifluoroethyl)thieno[2,3-d]pyrimidine-2,4(1H, 3H)-dione]	17
CCCCn1c(=O)n(C2(C)CC2)c(=O)c2c(C)c(CN3CCNC3=O)sc21 [Example 54, 1-Butyl-5-methyl-3-(1-methylcyclopropyl)-6-[(2-oxoimidazolidin-1-yl)methyl]thieno[2,3-d]pyrimidine-2,4(1H,3H)-dione]	7.5
Cc1c(CN2CCNC2=NC#N)sc2c1c(=O)n(C1CC1)c(=O)n2CC1CCCO1 (racemic) [Example 41, [1-{[3-Cyclopropyl-5-methyl-2,4-dioxo-1-(tetrahydrofuran-2-ylmethyl)-1,2,3,4-tetrahydrothieno[2,3-d]pyrimidin-6-yl]methyl}imidazolidin-2-ylidene]cyanamide]	16
COCCn1c(=O)n(C2(C(F)(F)F)CC2)c(=O)c2c(C)c(CN3CCNC3=NC(=O)OC)sc21 [Example 87, Methyl [1-({1-(2-methoxyethyl)-5-methyl-2,4-dioxo-3-[1-(trifluoromethyl)cyclopropyl]-1,2,3,4-tetrahydrothieno[2,3-d]pyrimidin-6-yl}methyl)imidazolidin-2-ylidene]carbamate]	140
COC(=O)N=C1NCCN1Cc1sc2c(c1C)c(=O)n(C1(C)CC1)c(=O)n2CCC(F)(F)F [Example 58, Methyl [1-{[5-methyl-3-(1-methylcyclopropyl)-2,4-dioxo-1-(3,3,3-trifluoropropyl)-1,2,3,4-tetrahydrothieno[2,3-d]pyrimidin-6-yl]methyl}imidazolidin-2-ylidene]carbamate]	10
COCCn1c(=O)n([C@H]2C[C@@H](OC)C2)c(=O)c2c(C)c(CN3CCNC(=O)C3=O)sc21 [Example 162, 6-[(2,3-Dioxopiperazin-1-yl)methyl]-3-(cis-3-methoxycyclobutyl)-1-(2-methoxyethyl)-5-methylthieno[2,3-d]pyrimidine-2,4(1H,3H)-dione]	730
CO[C@H]1C[C@H](n2c(=O)c3c(C)c(CN4CCNC4=O)sc3n(CCC(F)(F)F)c2=O)C1 [Example 144, 3-(trans-3-Methoxycyclobutyl)-5-methyl-6-[(2-oxoimidazolidin-1-yl)methyl]-1-(3,3,3-trifluoropropyl)thieno[2,3-d]pyrimidine-2,4(1H,3H)-dione]	10
CCC1(n2c(=O)c3c(C)c(CN4CCNC4=O)sc3n(CCC(F)(F)F)c2=O)CC1 [Example 106, 3-(1-Ethylcyclopropyl)-5-methyl-6-[(2-oxoimidazolidin-1-yl)methyl]-1-(3,3,3-trifluoropropyl)thieno[2,3-d]pyrimidine-2,4(1H,3H)-dione]	41
CO[C@H]1C[C@H](n2c(=O)c3c(C)c(CN4CCNC(=O)C4=O)sc3n(CCC(F)(F)F)c2=O)C1 [Example 147, 6-[(2,3-Dioxopiperazin-1-yl)methyl]-3-(trans-3-methoxycyclobutyl)-5-methyl-1-(3,3,3-trifluoropropyl)thieno[2,3-d]pyrimidine-2,4(1H,3H)-dione]	48
Cc1c(CN2CCNC2=O)sc2c1c(=O)n(C1CC1C)c(=O)n2CC(F)F (racemic) [Example 234, 1-(2,2-Difluoroethyl)-5-methyl-3-(2-methylcyclopropyl)-6-[(2-oxoimidazolidin-1-yl)methyl]thieno[2,3-d]pyrimidine-2,4(1H,3H)-dione]	1.9
CCCn1c(=O)n(C2CC2C)c(=O)c2c(C)c(CN3CCNC3=O)sc21 (racemic) [Example 227, 5-Methyl-3-(2-methylcyclopropyl)-6-[(2-oxoimidazolidin-1-yl)methyl]-1-propylthieno[2,3-d]pyrimidine-2,4(1H,3H)-dione]	2.9
COCCn1c(=O)n(C2(C)CCC2)c(=O)c2c(C)c(Cn3nc[nH]c3=O)sc21 [Example 143, 1-(2-Methoxyethyl)-5-methyl-3-(1-methylcyclobutyl)-6-[(5-oxo-4,5-dihydro-H-1,2,4-triazol-1-yl)methyl]thieno[2,3-d]pyrimidine-2,4(1H,3H)-dione]	880
COCCn1c(=O)n([C@H]2C[C@H](OC)C2)c(=O)c2c(C)c(CN3CCNC3=O)sc21 [Example 149, 3-(trans-3-Methoxycyclobutyl)-1-(2-methoxyethyl)-5-methyl-6-[(2-oxoimidazolidin-1-yl)methyl]thieno[2,3-d]pyrimidine-2,4(1H,3H)-dione]	82
COCCn1c(=O)n(C2CC2(C)C)c(=O)c2c(C)c(CN3CCNC3=O)sc21 (single isomer, unassigned) [Example 104, 3-(2,2-Dimethylcyclopropyl)-1-(2-methoxyethyl)-5-methyl-6-[(2-oxoimidazolidin-1-yl)methyl]thieno[2,3-d]pyrimidine-2,4(1H,3H)-dione]	35
COC(=O)N=C1NCCN1Cc1sc2c(c1C)c(=O)n(C1CC1C)c(=O)n2CCOC(F)(F)F (single isomer, unassigned) [Example 268, Methyl [1-({5-methyl-3-(2-methylcyclopropyl)-2,4-dioxo-1-[2-(trifluoromethoxy)ethyl]-1,2,3,4-tetrahydrothieno[2,3-d]pyrimidin-6-yl}methyl)imidazolidin-2-ylidene]carbamate]	1.5
Cc1c(CN2CCNC2=O)sc2c1c(=O)n(C1CC1C)c(=O)n2CCOC(F)(F)F (single isomer, unassigned) [Example 262, 5-Methyl-3-(2-methylcyclopropyl)-6-[(2-oxoimidazolidin-1-yl)methyl]-1-[2-(trifluoromethoxy)ethyl]thieno[2,3-d]pyrimidine-2,4(1H,3H)-dione]	1.2
COCCn1c(=O)n(C2CC3(CCC3)C2)c(=O)c2c(C)c(CN3CCNC3=NC#N)sc21 [Example 180, [1-{[1-(2-Methoxyethyl)-5-methyl-2,4-dioxo-3-(spiro[3.3]hept-2-yl)-1,2,3,4-tetrahydrothieno[2,3-d]pyrimidin-6-yl]methyl}imidazolidin-2-ylidene]cyanamide]	13
Cc1c(CN2CCNC2=O)sc2c1c(=O)n(C1CC1C)c(=O)n2CCC(F)(F)F (racemic) [Example 93, 5-Methyl-3-(2-methylcyclopropyl)-6-[(2-oxoimidazolidin-1-yl)methyl]-1-(3,3,3-trifluoropropyl)thieno[2,3-d]pyrimidine-2,4(1H,3H)-dione]	1.8
Cc1c(Cn2nc[nH]c2=O)sc2c1c(=O)n(C1CC1)c(=O)n2CC#N [Example 23, {3-Cyclopropyl-5-methyl-2,4-dioxo-6-[(5-oxo-4,5-dihydro-1H-1,2,4-triazol-1-yl)methyl]-3,4-dihydrothieno[2,3-d]pyrimidin-1 (2H)-yl}acetonitrile]	130
Cc1c(Cn2nc[nH]c2=O)sc2c1c(=O)n(C1(C)CCC1)c(=O)n2CCC(F)(F)F [Example 138, 5-Methyl-3-(1-methylcyclobutyl)-6-[(5-oxo-4,5-dihydro-1H-1,2,4-triazol-1-yl)methyl]-1-(3,3,3-trifluoropropyl)thieno[2,3-d]pyrimidine-2,4(1H,3H)-dione]	260
Cc1c(Cn2cc[nH]c2=O)sc2c1c(=O)n(C1(C)CC1)c(=O)n2CC1CC(F)(F)C1 [Example 216]	3.2
